Target: T1, full-length ATR (Homo sapiens, UniProt Q13535)
T1 construct: Assays were carried out at 25° C. in the presence of 5 nM full-length ATR
Assay: ATR Inhibition Assay (radioactive-phosphate incorporation)
Type: biochemical
Settings: for % inhibition of ATR / inhibition at 8 µM: at 8 uM
Description: Compounds were screened for their ability to inhibit ATR kinase using a radioactive-phosphate incorporation assay. Assays were carried out in a mixture of 50 mM Tris/HCl (pH 7.5), 10 mM MgCl2 and 1 mM DTT. Final substrate concentrations were 10 μM [γ-33P]ATP (3mCi 33P ATP/mmol ATP, Perkin Elmer) and 800 μM target peptide ([…] (SEQ. ID NO: 1)).
Assays were carried out at 25° C. in the presence of 5 nM full-length ATR. An assay stock buffer solution was prepared containing all of the reagents listed above, with the exception of ATP and the test compound of interest. 13.5 μL of the stock solution was placed in a 96 well plate followed by addition of 2 μL of DMSO stock containing serial dilutions of the test compound (typically starting from a final concentration of 15 μM with 3-fold serial dilutions) in duplicate (final DMSO concentration 7%). The plate was pre-incubated for 10 minutes at 25° C. and the reaction initiated by addition of 15 μl. [γ-33P]ATP (final concentration 10 μM).
The reaction was stopped after […] by the addition of 30 μL 0.1 M phosphoric acid containing 2 mM ATP. A multiscreen phosphocellulose filter 96-well plate (Millipore, Cat no. MAPHN0B50) was pretreated with 100 μL 0.2M phosphoric acid prior to the addition of 45 μL of the stopped assay mixture. The plate was washed with 5×200 μL 0.2 M phosphoric acid. After drying, 100 μL Optiphase ‘SuperMix’ liquid scintillation cocktail (Perkin Elmer) was added to the well prior to scintillation counting (1450 Microbeta Liquid Scintillation Counter, Wallac).
After removing mean background values for all of the data points, Ki(app) data were calculated from non-linear regression analysis of the initial rate data using the Prism software package (GraphPad Prism version 3.0cx for Macintosh, GraphPad Software, San Diego Calif., USA).

T1 sequence (Q13535 whole entry): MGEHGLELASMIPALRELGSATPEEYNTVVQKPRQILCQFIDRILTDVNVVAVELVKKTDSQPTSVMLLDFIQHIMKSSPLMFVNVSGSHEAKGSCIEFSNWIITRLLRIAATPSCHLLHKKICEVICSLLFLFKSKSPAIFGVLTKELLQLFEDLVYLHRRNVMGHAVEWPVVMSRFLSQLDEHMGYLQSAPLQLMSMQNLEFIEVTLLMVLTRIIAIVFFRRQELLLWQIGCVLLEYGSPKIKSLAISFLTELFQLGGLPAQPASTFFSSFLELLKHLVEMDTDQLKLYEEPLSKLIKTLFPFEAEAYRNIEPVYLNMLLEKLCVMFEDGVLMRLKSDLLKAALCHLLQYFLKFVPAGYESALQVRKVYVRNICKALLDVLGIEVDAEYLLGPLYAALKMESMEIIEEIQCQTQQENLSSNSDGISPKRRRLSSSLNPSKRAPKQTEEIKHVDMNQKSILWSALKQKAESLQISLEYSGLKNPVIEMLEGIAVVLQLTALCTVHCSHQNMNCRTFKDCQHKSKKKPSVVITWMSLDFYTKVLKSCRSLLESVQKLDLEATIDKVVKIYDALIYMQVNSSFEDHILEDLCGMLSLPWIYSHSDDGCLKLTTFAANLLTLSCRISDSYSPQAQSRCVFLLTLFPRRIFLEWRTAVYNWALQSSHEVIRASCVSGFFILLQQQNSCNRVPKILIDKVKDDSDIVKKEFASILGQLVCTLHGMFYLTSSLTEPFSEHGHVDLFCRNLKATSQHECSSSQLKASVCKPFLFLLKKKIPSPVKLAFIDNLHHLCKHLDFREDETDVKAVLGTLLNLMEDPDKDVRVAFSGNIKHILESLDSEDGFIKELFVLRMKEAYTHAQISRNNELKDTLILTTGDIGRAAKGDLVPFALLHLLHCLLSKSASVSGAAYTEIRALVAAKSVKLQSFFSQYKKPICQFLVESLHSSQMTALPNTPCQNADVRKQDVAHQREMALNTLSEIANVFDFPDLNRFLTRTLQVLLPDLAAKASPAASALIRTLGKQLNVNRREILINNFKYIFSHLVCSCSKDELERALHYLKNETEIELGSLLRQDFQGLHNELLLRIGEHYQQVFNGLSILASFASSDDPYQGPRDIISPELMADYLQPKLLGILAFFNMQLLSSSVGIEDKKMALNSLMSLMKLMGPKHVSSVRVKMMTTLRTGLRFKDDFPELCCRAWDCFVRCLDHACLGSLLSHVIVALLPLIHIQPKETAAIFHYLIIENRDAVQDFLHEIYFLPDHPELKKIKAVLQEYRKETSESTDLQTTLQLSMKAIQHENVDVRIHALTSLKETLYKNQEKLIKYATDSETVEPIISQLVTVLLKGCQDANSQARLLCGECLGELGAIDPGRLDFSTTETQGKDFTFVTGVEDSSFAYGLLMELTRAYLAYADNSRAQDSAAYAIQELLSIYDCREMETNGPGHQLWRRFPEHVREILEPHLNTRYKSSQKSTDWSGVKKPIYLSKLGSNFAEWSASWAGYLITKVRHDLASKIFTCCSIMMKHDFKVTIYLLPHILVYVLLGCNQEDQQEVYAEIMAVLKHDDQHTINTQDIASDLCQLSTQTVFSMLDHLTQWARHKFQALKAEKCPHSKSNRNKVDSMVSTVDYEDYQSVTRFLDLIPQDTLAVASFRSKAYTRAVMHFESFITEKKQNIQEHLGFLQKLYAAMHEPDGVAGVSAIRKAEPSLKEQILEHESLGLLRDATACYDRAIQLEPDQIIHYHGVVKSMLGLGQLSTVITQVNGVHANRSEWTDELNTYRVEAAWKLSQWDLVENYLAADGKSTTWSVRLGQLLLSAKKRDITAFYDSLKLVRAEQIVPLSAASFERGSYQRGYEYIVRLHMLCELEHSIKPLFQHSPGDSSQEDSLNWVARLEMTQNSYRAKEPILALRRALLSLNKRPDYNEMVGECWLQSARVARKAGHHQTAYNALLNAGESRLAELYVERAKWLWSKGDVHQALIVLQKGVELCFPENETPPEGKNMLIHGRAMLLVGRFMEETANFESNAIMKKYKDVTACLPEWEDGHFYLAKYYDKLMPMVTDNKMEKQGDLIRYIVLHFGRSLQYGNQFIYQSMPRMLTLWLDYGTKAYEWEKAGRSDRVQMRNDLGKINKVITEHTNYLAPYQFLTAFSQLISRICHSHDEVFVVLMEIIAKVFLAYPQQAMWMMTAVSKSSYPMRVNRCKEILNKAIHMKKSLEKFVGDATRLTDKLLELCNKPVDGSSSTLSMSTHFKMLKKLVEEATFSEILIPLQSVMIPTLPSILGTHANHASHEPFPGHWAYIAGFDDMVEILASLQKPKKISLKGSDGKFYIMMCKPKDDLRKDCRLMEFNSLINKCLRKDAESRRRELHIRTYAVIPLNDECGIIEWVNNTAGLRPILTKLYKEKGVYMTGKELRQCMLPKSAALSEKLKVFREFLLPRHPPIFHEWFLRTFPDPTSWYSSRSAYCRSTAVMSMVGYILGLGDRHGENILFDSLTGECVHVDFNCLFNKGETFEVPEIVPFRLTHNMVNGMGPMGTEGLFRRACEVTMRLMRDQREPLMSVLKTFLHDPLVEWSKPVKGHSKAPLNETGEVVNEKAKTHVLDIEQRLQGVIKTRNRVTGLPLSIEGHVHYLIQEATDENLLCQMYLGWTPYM

| Structure (SMILES) | % inhibition of ATR | Ki [nM] | inhibition at 8 µM [%] |
| --- | --- | --- | --- |
| CC(C)S(=O)(=O)c1ccc(-c2cnc(N)c(N3CCN(c4ccccc4)CC3)n2)cc1 [Compound V-1, 5-(4-Isopropylsulfonylphenyl)-3-(4-phenylpiperazin-1-yl)pyrazin-2-amine] | no detectable inhibition |  |  |
| CC(C)S(=O)(=O)c1ccc(-c2cnc(N)c(N3CCC(N)C3)n2)cc1 (centres unmarked) [Compound V-2, 3-(3-Aminopyrrolidin-1-yl)-5-(4-isopropylsulfonylphenyl)pyrazin-2-amine] |  | > 1000 | 10 |
| CC(C)S(=O)(=O)c1ccc(-c2cnc(N)c(NCc3ccccc3)n2)cc1 [Compound V-3] |  | > 1000 | 10 |
| CC(C)S(=O)(=O)c1ccc(-c2cnc(N)c(NCC3=CC(O)CC=C3)n2)cc1 (centres unmarked) [Compound V-4] |  | 100 to 1000 |  |
| CC(C)S(=O)(=O)c1ccc(-c2cnc(N)c(NCCc3ccccc3)n2)cc1 [Compound V-5, 5-(4-Isopropylsulfonylphenyl)-N3-phenethyl-pyrazine-2,3-diamine] |  |  | 20 |
| CC(C)S(=O)(=O)c1ccc(-c2cnc(N)c(NC[C@H](O)c3ccccc3)n2)cc1 [Compound V-6, (1R)-2-[[3-amino-6-(4-isopropylsulfonylphenyl)pyrazin-2-yl]amino-]-1-phenyl-ethanol] |  | > 1000 | 10 |
| CC(C)S(=O)(=O)c1ccc(-c2cnc(N)c(NC[C@@H](O)c3ccccc3)n2)cc1 [Compound V-7, (1S)-2-[[3-Amino-6-(4-isopropylsulfonylphenyl)pyrazin-2-yl]amino]-1-phenyl-ethanol] |  | > 1000 | 30 |
| CS(=O)(=O)c1ccc(-c2cnc(N)c(OCc3ccccc3)n2)cc1 [Compound V-9] |  | ≤ 100 |  |
| CS(=O)(=O)c1ccc(-c2cnc(N)c(/C=C/c3ccccc3)n2)cc1 [Compound V-10] |  | ≤ 100 |  |
| CC(C)S(=O)(=O)c1ccc(-c2cnc(N)c(CCc3ccccc3)n2)cc1 [Compound V-11, 5-(4-Isopropylsulfonylphenyl)-3-phenethyl-pyrazin-2-amine] |  | ≤ 100 |  |
| CC(C)S(=O)(=O)c1ccc(-c2cnc(N)c(C(=O)c3ccccc3)n2)cc1 [Compound V-12, [3-Amino-6-(4-isopropylsulfonylphenyl)pyrazin-2-yl]-phenyl-methanone] |  | ≤ 100 |  |
| CC(C)S(=O)(=O)c1ccc(-c2cnc(N)c(NCCc3ccccc3)n2)cc1 [Compound V-13, 6-(4-(isopropylsulfonyl)phenyl)-N2-phenethylpyrazine-2,3-diamine] |  | > 1000 |  |
| CS(=O)(=O)c1ccc(-c2cnc(N)c(NS(=O)(=O)c3ccccc3)n2)cc1 [Compound V-14, N-(3-amino-6-(4-(methylsulfonyl)phenyl)pyrazin-2-yl)benzenesulfonamide] | no detectable inhibition | > 1000 |  |
| CC(C)n1cc(-c2cnc(N)c(OCc3ccccc3)n2)ccc1=O [Compound V-15, 5-(5-amino-6-(benzyloxy)pyrazin-2-yl)-1-isopropylpyridin-2(1H)-one] |  | 100 to 1000 |  |
| CC(C)S(=O)(=O)c1ccc(-c2cnc(N)c(/C(F)=C/c3ccccc3)n2)cc1 [Compound V-16, (Z)-3-(1-fluoro-2-phenylvinyl)-5-(4-(isopropylsulfonyl)phenyl)pyrazin-2-amine] |  | ≤ 100 |  |
